Data reported in patent publication US8808979B2, “Methods related to liver enzyme induction as a predisposition for liver toxicity and diseases or disorders associated therewith” (priority 2008, dated 2014).

Legend:
male rats = test: Plasma metabolite profiling (GC-MS/LC-MS), markers for liver enzyme induction in male rats, 28-day gavage study; assay type: in vivo, rat; conditions: high dose
Protocol: (§1) A group of each 5 male and female rats was dosed once daily with the indicated compounds (see tables below) at 10 and 100 mg/kg body weight per gavage over 28 days. Additional groups of each 5 male and female animals served as controls. Before starting the treatment period, animals, which were 62-64 days old when supplied, were acclimatized to the housing and environmental conditions for 7 days. All animals of the animal population were kept under the same constant temperature (20-24±3° C.) and the same constant humidity (30-70%). Each animal of the animal population was kept in a separate cage. The animals of the animal population are fed ad libitum. The food to be used was be essentially free of chemical or microbial contaminants. Drinking water was also offered ad libitum. Accordingly, the water was be free of chemical and microbial contaminants as laid down in the European Drinking Water Directive 98/83/EG. The illumination period was 12 hours light followed by 12 hours darkness (12 hours light, from 6:00 to 18:00, and 12 hours darkness, from 18:00 to 6:00).
(§2) In the morning of day 7, 14, and 28, blood was taken from the retroorbital venous plexus from fasted anaesthetized animals. From each animal, 1 ml of blood was collected with EDTA as anticoagulant. The samples were be centrifuged for generation of plasma. All plasma samples were covered with a N2 atmosphere and then stored at—80° C. until analysis.
(§3) For mass spectrometry-based metabolite profiling analyses plasma samples were extracted and a polar and a non-polar fraction was obtained. For GC-MS analysis, the non-polar fraction was treated with methanol under acidic conditions to yield the fatty acid methyl esters. Both fractions were further derivatised with O-methyl-hydroxyamine hydrochloride and pyridine to convert oxo-groups to O-methyloximes and subsequently with a silylating agent before analysis. In LC-MS analysis, both fractions were reconstituted in appropriate solvent mixtures. HPLC was performed by gradient elution on reversed phase separation columns. For mass spectrometric detection metanomics proprietary technology was applied which allows target and high sensitivity MRM (Multiple Reaction Monitoring) profiling in parallel to a full screen analysis.
(§4) Following comprehensive analytical validation steps, the data for each analyte were normalized against data from pool samples. These samples were run in parallel through the whole process to account for process variability. The significance of treatment group values specific for sex, dose group and metabolite was determined by comparing means of the treated groups to the means of the respective untreated control groups using Student's t-test. Normalized treatment group values and their significance were fed into a database for further statistics and data mining processes.
(§5) The changes of the group of plasma metabolites being indicative for liver enzyme induction after treatment of the rats are shown in the following tables: […]

female rats = test: Plasma metabolite profiling (GC-MS/LC-MS), markers for liver enzyme induction in female rats, 28-day gavage study; assay type: in vivo, rat; conditions: high dose
Protocol: as §1, §2, §3, §4, §5

Clc1cc(Cl)c(Cl)c(Cl)c1Cl [Pentachlorobenzene]
1,2-Dioleoyl-sn-glycero-3-phosphatidyl-L-serine, change of plasma metabolite, mh7 (male rats; day 7, relative to controls): 1.27 | Behenic acid (C22:0), change of plasma metabolite, mh7 (male rats; day 7, relative to controls): 1.43 | Cholesterol, change of plasma metabolite, mh7 (male rats; day 7, relative to controls): 1.31 | Eicosapentanoic acid, change of plasma metabolite, mh7 (male rats; day 7, relative to controls): 1.4 | Galactose, lipid fraction, change of plasma metabolite, mh7 (male rats; day 7, relative to controls): 1.37 | Lignoceric acid (C24:0), change of plasma metabolite, mh7 (male rats; day 7, relative to controls): 1.32 | Nervonic acid (C24:1), change of plasma metabolite, mh7 (male rats; day 7, relative to controls): 1.30 | Phosphatidylcholine (C18:0/C18:2), change of plasma metabolite, mh7 (male rats; day 7, relative to controls): 1.01 | Phosphatidylcholine (C18:0/C22:6), change of plasma metabolite, mh7 (male rats; day 7, relative to controls): 1.12 | Sphingolipids (3- and 5-Methoxysphingosine), change of plasma metabolite, mh7 (male rats; day 7, relative to controls): 1.42 | Stearic acid (C18:0), change of plasma metabolite, mh7 (male rats; day 7, relative to controls): 1.34 | Threonic acid, change of plasma metabolite, mh7 (male rats; day 7, relative to controls): 3.06 | 1,2-Dioleoyl-sn-glycero-3-phosphatidyl-L-serine, change of plasma metabolite, mh14 (male rats; day 14, relative to controls): 1.35 | Behenic acid (C22:0), change of plasma metabolite, mh14 (male rats; day 14, relative to controls): 1.26 | Cholesterol, change of plasma metabolite, mh14 (male rats; day 14, relative to controls): 1.46 | Eicosapentanoic acid, change of plasma metabolite, mh14 (male rats; day 14, relative to controls): 1.4 | Galactose, lipid fraction, change of plasma metabolite, mh14 (male rats; day 14, relative to controls): 1.37 | Lignoceric acid (C24:0), change of plasma metabolite, mh14 (male rats; day 14, relative to controls): 1.16 | Nervonic acid (C24:1), change of plasma metabolite, mh14 (male rats; day 14, relative to controls): 1.78 | Phosphatidylcholine (C18:0/C18:2), change of plasma metabolite, mh14 (male rats; day 14, relative to controls): 1.11 | Phosphatidylcholine (C18:0/C22:6), change of plasma metabolite, mh14 (male rats; day 14, relative to controls): 1.15 | Sphingolipids (3- and 5-Methoxysphingosine), change of plasma metabolite, mh14 (male rats; day 14, relative to controls): 1.79 | Stearic acid (C18:0), change of plasma metabolite, mh14 (male rats; day 14, relative to controls): 1.25 | Threonic acid, change of plasma metabolite, mh14 (male rats; day 14, relative to controls): 2.98 | 1,2-Dioleoyl-sn-glycero-3-phosphatidyl-L-serine, change of plasma metabolite, mh28 (male rats; day 28, relative to controls): 1.27 | Behenic acid (C22:0), change of plasma metabolite, mh28 (male rats; day 28, relative to controls): 1.34 | Cholesterol, change of plasma metabolite, mh28 (male rats; day 28, relative to controls): 1.04 | Eicosapentanoic acid, change of plasma metabolite, mh28 (male rats; day 28, relative to controls): 1.4 | Galactose, lipid fraction, change of plasma metabolite, mh28 (male rats; day 28, relative to controls): 1.51 | Lignoceric acid (C24:0), change of plasma metabolite, mh28 (male rats; day 28, relative to controls): 1.21 | Nervonic acid (C24:1), change of plasma metabolite, mh28 (male rats; day 28, relative to controls): 1.17 | Phosphatidylcholine (C18:0/C18:2), change of plasma metabolite, mh28 (male rats; day 28, relative to controls): 1.10 | Phosphatidylcholine (C18:0/C22:6), change of plasma metabolite, mh28 (male rats; day 28, relative to controls): 1.06 | Sphingolipids (3- and 5-Methoxysphingosine), change of plasma metabolite, mh28 (male rats; day 28, relative to controls): 1.46 | Stearic acid (C18:0), change of plasma metabolite, mh28 (male rats; day 28, relative to controls): 1.05 | Threonic acid, change of plasma metabolite, mh28 (male rats; day 28, relative to controls): 3.48 | 1,2-Dioleoyl-sn-glycero-3-phosphatidyl-L-serine, change of plasma metabolite, fh7 (female rats; day 7, relative to controls): 1.28 | Arachidonic acid (C20:cis-[5,8,11,14]4), change of plasma metabolite, fh7 (female rats; day 7, relative to controls): 1.27 | Behenic acid (C22:0), change of plasma metabolite, fh7 (female rats; day 7, relative to controls): 1.30 | Cholesterol, change of plasma metabolite, fh7 (female rats; day 7, relative to controls): 1.23 | Docosahexaenoic acid (C22:cis[4,7,10,13,16,19]6), change of plasma metabolite, fh7 (female rats; day 7, relative to controls): 1.79 | Dodecanol, change of plasma metabolite, fh7 (female rats; day 7, relative to controls): 1.17 | Eicosanoic acid (C20:0), change of plasma metabolite, fh7 (female rats; day 7, relative to controls): 1.13 | Galactose, lipid fraction, change of plasma metabolite, fh7 (female rats; day 7, relative to controls): 1.10 | Glycerol, lipid fraction, change of plasma metabolite, fh7 (female rats; day 7, relative to controls): 2.38 | Glycerolphosphate, lipid fraction, change of plasma metabolite, fh7 (female rats; day 7, relative to controls): 1.27 | Heptadecanoic acid (C17:0), change of plasma metabolite, fh7 (female rats; day 7, relative to controls): 1.32 | Lignoceric acid (C24:0), change of plasma metabolite, fh7 (female rats; day 7, relative to controls): 1.39 | Linoleic acid (C18:cis[9,12]2), change of plasma metabolite, fh7 (female rats; day 7, relative to controls): 2.11 | Nervonic acid (C24:1), change of plasma metabolite, fh7 (female rats; day 7, relative to controls): 0.97 | Palmitic acid (C16:0), change of plasma metabolite, fh7 (female rats; day 7, relative to controls): 1.59 | Phosphatidylcholine (C18:0/C18:2), change of plasma metabolite, fh7 (female rats; day 7, relative to controls): 1.14 | Sphingolipids (3- and 5-Methoxysphingosine), change of plasma metabolite, fh7 (female rats; day 7, relative to controls): 1.43 | Stearic acid (C18:0), change of plasma metabolite, fh7 (female rats; day 7, relative to controls): 1.30 | Threonic acid, change of plasma metabolite, fh7 (female rats; day 7, relative to controls): 3.67 | Tricosanoic acid (C23:0), change of plasma metabolite, fh7 (female rats; day 7, relative to controls): 1.18 | gamma-Linolenic acid (C18:cis[6,9,12]3), change of plasma metabolite, fh7 (female rats; day 7, relative to controls): 1.71 | myo-Inositol-2-monophosphate, lipid fraction, change of plasma metabolite, fh7 (female rats; day 7, relative to controls): 1.81 | 1,2-Dioleoyl-sn-glycero-3-phosphatidyl-L-serine, change of plasma metabolite, fh14 (female rats; day 14, relative to controls): 1.72 | Arachidonic acid (C20:cis-[5,8,11,14]4), change of plasma metabolite, fh14 (female rats; day 14, relative to controls): 1.89 | Behenic acid (C22:0), change of plasma metabolite, fh14 (female rats; day 14, relative to controls): 1.60 | Cholesterol, change of plasma metabolite, fh14 (female rats; day 14, relative to controls): 1.64 | Docosahexaenoic acid (C22:cis[4,7,10,13,16,19]6), change of plasma metabolite, fh14 (female rats; day 14, relative to controls): 2.49 | Dodecanol, change of plasma metabolite, fh14 (female rats; day 14, relative to controls): 1.79 | Eicosanoic acid (C20:0), change of plasma metabolite, fh14 (female rats; day 14, relative to controls): 2.76 | Galactose, lipid fraction, change of plasma metabolite, fh14 (female rats; day 14, relative to controls): 1.28 | Glycerol, lipid fraction, change of plasma metabolite, fh14 (female rats; day 14, relative to controls): 7.37 | Glycerolphosphate, lipid fraction, change of plasma metabolite, fh14 (female rats; day 14, relative to controls): 1.52 | Heptadecanoic acid (C17:0), change of plasma metabolite, fh14 (female rats; day 14, relative to controls): 1.89 | Lignoceric acid (C24:0), change of plasma metabolite, fh14 (female rats; day 14, relative to controls): 1.60 | Linoleic acid (C18:cis[9,12]2), change of plasma metabolite, fh14 (female rats; day 14, relative to controls): 5.23 | Nervonic acid (C24:1), change of plasma metabolite, fh14 (female rats; day 14, relative to controls): 1.55 | Palmitic acid (C16:0), change of plasma metabolite, fh14 (female rats; day 14, relative to controls): 3.46 | Phosphatidylcholine (C18:0/C18:2), change of plasma metabolite, fh14 (female rats; day 14, relative to controls): 1.20 | Sphingolipids (3- and 5-Methoxysphingosine), change of plasma metabolite, fh14 (female rats; day 14, relative to controls): 1.77 | Stearic acid (C18:0), change of plasma metabolite, fh14 (female rats; day 14, relative to controls): 1.87 | Threonic acid, change of plasma metabolite, fh14 (female rats; day 14, relative to controls): 3.63 | Tricosanoic acid (C23:0), change of plasma metabolite, fh14 (female rats; day 14, relative to controls): 1.46 | gamma-Linolenic acid (C18:cis[6,9,12]3), change of plasma metabolite, fh14 (female rats; day 14, relative to controls): 4.53 | myo-Inositol-2-monophosphate, lipid fraction, change of plasma metabolite, fh14 (female rats; day 14, relative to controls): 3.61 | 1,2-Dioleoyl-sn-glycero-3-phosphatidyl-L-serine, change of plasma metabolite, fh28 (female rats; day 28, relative to controls): 1.51 | Arachidonic acid (C20:cis-[5,8,11,14]4), change of plasma metabolite, fh28 (female rats; day 28, relative to controls): 1.50 | Behenic acid (C22:0), change of plasma metabolite, fh28 (female rats; day 28, relative to controls): 1.41 | Cholesterol, change of plasma metabolite, fh28 (female rats; day 28, relative to controls): 1.62 | Docosahexaenoic acid (C22:cis[4,7,10,13,16,19]6), change of plasma metabolite, fh28 (female rats; day 28, relative to controls): 1.57 | Dodecanol, change of plasma metabolite, fh28 (female rats; day 28, relative to controls): 1.40 | Eicosanoic acid (C20:0), change of plasma metabolite, fh28 (female rats; day 28, relative to controls): 1.98 | Galactose, lipid fraction, change of plasma metabolite, fh28 (female rats; day 28, relative to controls): 1.40 | Glycerol, lipid fraction, change of plasma metabolite, fh28 (female rats; day 28, relative to controls): 2.68 | Glycerolphosphate, lipid fraction, change of plasma metabolite, fh28 (female rats; day 28, relative to controls): 1.43 | Heptadecanoic acid (C17:0), change of plasma metabolite, fh28 (female rats; day 28, relative to controls): 1.54 | Lignoceric acid (C24:0), change of plasma metabolite, fh28 (female rats; day 28, relative to controls): 1.75 | Linoleic acid (C18:cis[9,12]2), change of plasma metabolite, fh28 (female rats; day 28, relative to controls): 2.69 | Nervonic acid (C24:1), change of plasma metabolite, fh28 (female rats; day 28, relative to controls): 1.46 | Palmitic acid (C16:0), change of plasma metabolite, fh28 (female rats; day 28, relative to controls): 1.86 | Phosphatidylcholine (C18:0/C18:2), change of plasma metabolite, fh28 (female rats; day 28, relative to controls): 1.23 | Sphingolipids (3- and 5-Methoxysphingosine), change of plasma metabolite, fh28 (female rats; day 28, relative to controls): 1.73 | Stearic acid (C18:0), change of plasma metabolite, fh28 (female rats; day 28, relative to controls): 1.65 | Threonic acid, change of plasma metabolite, fh28 (female rats; day 28, relative to controls): 4.57 | Tricosanoic acid (C23:0), change of plasma metabolite, fh28 (female rats; day 28, relative to controls): 1.45 | gamma-Linolenic acid (C18:cis[6,9,12]3), change of plasma metabolite, fh28 (female rats; day 28, relative to controls): 2.98 | myo-Inositol-2-monophosphate, lipid fraction, change of plasma metabolite, fh28 (female rats; day 28, relative to controls): 1.93
